Assay results reported in publication PMC5951806, “Rapid labelling and covalent inhibition of intracellular native proteins using ligand-directed N-acyl-N-alkyl sulfonamide” (Nature Communications, 2018).

Key:
Assay in all cases: TMT LC-MSMS of 11-labelled proteins
Format in all cases: cell-based
[1] = target: T1, Isoform 1 of Voltage-dependent anion-selective channel protein 2 (VDAC2) (Homo sapiens, UniProt P45880)
T1 sequence (P45880 12-294 limits assumed): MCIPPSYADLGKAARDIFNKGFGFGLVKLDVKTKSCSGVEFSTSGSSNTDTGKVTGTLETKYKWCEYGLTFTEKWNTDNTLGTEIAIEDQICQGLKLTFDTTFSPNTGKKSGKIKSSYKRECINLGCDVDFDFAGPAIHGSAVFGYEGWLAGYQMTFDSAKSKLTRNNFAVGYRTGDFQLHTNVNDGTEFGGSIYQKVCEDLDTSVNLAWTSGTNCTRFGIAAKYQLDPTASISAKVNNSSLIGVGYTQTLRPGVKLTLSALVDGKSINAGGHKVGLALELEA

[2] = target: tubulin beta chain (TUBB) (Homo sapiens, UniProt P07437)
[3] = target: T2, ADP/ATP translocase 2 (SLC25A5) (Homo sapiens, UniProt P05141)
T2 sequence (P05141 1-298): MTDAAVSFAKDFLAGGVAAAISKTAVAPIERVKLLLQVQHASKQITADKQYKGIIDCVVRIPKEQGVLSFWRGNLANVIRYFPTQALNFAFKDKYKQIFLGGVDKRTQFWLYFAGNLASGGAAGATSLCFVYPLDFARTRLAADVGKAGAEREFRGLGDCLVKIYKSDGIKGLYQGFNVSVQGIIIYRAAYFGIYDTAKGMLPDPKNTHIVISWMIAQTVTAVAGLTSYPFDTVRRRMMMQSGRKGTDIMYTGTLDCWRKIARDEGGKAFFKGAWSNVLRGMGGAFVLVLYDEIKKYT

[4] = target: Cytochrome b-c1 complex subunit 1, mitochondrial (UQCRC1) (Homo sapiens, UniProt P31930)
[5] = sheet Exp1, SKBR3 cells, 11 0.5 µM 3 h vs DMSO
[6] = sheet Exp1, SKBR3 cells, 11 0.5 µM 3 h vs with PU-H71 10 µM
[7] = sheet Merged, SKBR3 cells, 11 0.5 µM 3 h vs DMSO
[8] = sheet Merged, SKBR3 cells, 11 0.5 µM 3 h vs with PU-H71 10 µM

tubulin beta chain (TUBB), sequence (P07437 whole entry): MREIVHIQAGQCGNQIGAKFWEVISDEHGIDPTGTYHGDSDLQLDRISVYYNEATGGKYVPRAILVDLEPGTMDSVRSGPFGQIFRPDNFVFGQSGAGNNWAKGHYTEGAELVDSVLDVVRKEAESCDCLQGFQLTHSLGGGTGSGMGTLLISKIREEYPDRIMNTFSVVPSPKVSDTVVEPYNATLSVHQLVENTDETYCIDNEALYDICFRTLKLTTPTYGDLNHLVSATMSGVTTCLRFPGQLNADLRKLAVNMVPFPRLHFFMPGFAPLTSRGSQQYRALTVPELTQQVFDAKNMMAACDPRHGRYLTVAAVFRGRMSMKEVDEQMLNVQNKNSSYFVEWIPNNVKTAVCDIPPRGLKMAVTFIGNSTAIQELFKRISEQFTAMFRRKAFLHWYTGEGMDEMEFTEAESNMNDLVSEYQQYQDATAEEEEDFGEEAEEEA
tubulin beta chain (TUBB), sequence (P68363 whole entry partner): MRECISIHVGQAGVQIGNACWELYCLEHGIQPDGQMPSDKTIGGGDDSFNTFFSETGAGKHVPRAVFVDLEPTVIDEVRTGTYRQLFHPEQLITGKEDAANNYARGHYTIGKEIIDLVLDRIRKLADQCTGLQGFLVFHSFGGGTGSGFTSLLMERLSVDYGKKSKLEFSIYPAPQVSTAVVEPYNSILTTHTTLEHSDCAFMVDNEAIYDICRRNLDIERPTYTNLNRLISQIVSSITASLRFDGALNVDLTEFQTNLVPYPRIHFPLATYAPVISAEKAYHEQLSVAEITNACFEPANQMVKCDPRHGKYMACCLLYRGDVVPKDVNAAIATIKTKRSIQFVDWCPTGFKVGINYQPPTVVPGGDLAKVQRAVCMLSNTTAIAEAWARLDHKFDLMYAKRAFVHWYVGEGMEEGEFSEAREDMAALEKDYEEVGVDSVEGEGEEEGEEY

SMILES: CC(=O)Oc1ccc2c(c1)Oc1cc(OC(C)=O)ccc1C21OC(=O)c2cc(C(=O)NCCOCCOCCNC(=O)CCCC(=O)N(CC#N)S(=O)(=O)c3ccc(C(=O)NCCCn4c(Sc5cc6c(cc5I)OCO6)nc5c(N)ncnc54)cc3)ccc21 [compound 11]
- Abundance Ratio: (11) / (11 with PU-H71) ([1]; Exp3, VDAC2): 0.617
- Abundance Ratio: (11) / (DMSO) ([1]; Exp3, VDAC2): 3.942
- Abundances (Grouped): 11 ([1]; Exp3, VDAC2): 149
- Abundances (Grouped): 11 with PU-H71 ([1]; Exp3, VDAC2, with PU-H71): 241.6
- Abundance Ratio: (11) / (DMSO) [1, 5]: 2.647
- Abundance Ratio: (11) / (11 with PU-H71) [1, 6]: 0.676
- Abundance Ratio: (11) / (DMSO) [1, 7]: 2.786
- Abundance Ratio: (11) / (11 with PU-H71) [1, 8]: 0.688
- Abundance Ratio: (11) / (11 with PU-H71) ([2]; Exp3, TUBB): 0.804
- Abundance Ratio: (11) / (DMSO) ([2]; Exp3, TUBB): 4.633
- Abundances (Grouped): 11 ([2]; Exp3, TUBB): 127.4
- Abundances (Grouped): 11 with PU-H71 ([2]; Exp3, TUBB): 158.4
- Abundance Ratio: (11) / (DMSO) [2, 5]: 3.833
- Abundance Ratio: (11) / (11 with PU-H71) [2, 6]: 0.775
- Abundance Ratio: (11) / (11 with PU-H71) ([2]; sheet Exp2, TUBB): 0.757
- Abundance Ratio: (11) / (DMSO) ([2]; sheet Exp2, TUBB): 3.139
- Abundances (Grouped): 11 ([2]; sheet Exp2, TUBB): 115.5
- Abundances (Grouped): 11 with PU-H71 ([2]; sheet Exp2, TUBB): 152.6
- Abundance Ratio: (11) / (DMSO) [2, 7]: 3.599
- Abundance Ratio: (11) / (11 with PU-H71) [2, 8]: 0.804
- Abundance Ratio: (11) / (11 with PU-H71) ([3]; Exp3, SLC25A5): 0.462
- Abundance Ratio: (11) / (DMSO) ([3]; Exp3, SLC25A5): 2.668
- Abundances (Grouped): 11 ([3]; Exp3, SLC25A5): 245.2
- Abundances (Grouped): 11 with PU-H71 ([3]; Exp3, SLC25A5): 530.2
- Abundance Ratio: (11) / (DMSO) [3, 5]: 5.138
- Abundance Ratio: (11) / (11 with PU-H71) [3, 6]: 0.711
- Abundance Ratio: (11) / (11 with PU-H71) ([3]; sheet Exp2, SLC25A5): 0.597
- Abundance Ratio: (11) / (DMSO) ([3]; sheet Exp2, SLC25A5): 5.273
- Abundances (Grouped): 11 ([3]; sheet Exp2, SLC25A5): 116
- Abundances (Grouped): 11 with PU-H71 ([3]; sheet Exp2, SLC25A5): 194.4
- Abundance Ratio: (11) / (DMSO) [3, 7]: 2.741
- Abundance Ratio: (11) / (11 with PU-H71) [3, 8]: 0.563
- Abundance Ratio: (11) / (11 with PU-H71) ([4]; Exp3, UQCRC1): 0.7
- Abundance Ratio: (11) / (DMSO) ([4]; Exp3, UQCRC1): 3
- Abundances (Grouped): 11 ([4]; Exp3, UQCRC1): 50.1
- Abundances (Grouped): 11 with PU-H71 ([4]; Exp3, UQCRC1): 71.6
- Abundance Ratio: (11) / (11 with PU-H71) ([4]; sheet Exp2, UQCRC1): 0.772
- Abundance Ratio: (11) / (DMSO) ([4]; sheet Exp2, UQCRC1): 3.724
- Abundances (Grouped): 11 ([4]; sheet Exp2, UQCRC1): 60.7
- Abundances (Grouped): 11 with PU-H71 ([4]; sheet Exp2, UQCRC1): 78.6
- Abundance Ratio: (11) / (DMSO) [4, 7]: 3.342
- Abundance Ratio: (11) / (11 with PU-H71) [4, 8]: 0.735
